Measured values from US20170349540A1, “HISTONE DEACETYLASE INHIBITORS” (The General Hospital Corporation, priority 2014, published 2017).

Key:
rats [1] = assay: Forced swim test; format: in vivo, rat; settings: 0.1 mg/kg i.p., against vehicle-treated controls, 5-min FST session
Procedure: Behavioral testing was applied to a cohort of 12 rats. Following 7 days of daily i.p. treatment with i) vehicle (10% DMSO, 10% Tween 80, 80% saline; 2 mL/kg); or solubilized ii) the compound of Example 2 (0.025 mg/kg) or iii) the compound of Example 2 (0.1 mg/kg), rats were exposed to the modified forced swim test (FST). Briefly, FST exposure (15 min exposure, 25° C. tap water, 30 cm water depth) was performed 18-24 h after the previous i.p. treatment, after which rats were returned to their home cages to dry for approximately 2-3 h, then given daily i.p. treatment as before. FST testing was performed one day later (5 min test, 25° C. tap water, 30 cm water depth) with behaviors digitally recorded for subsequent analysis of immobility by a trained reviewer, blinded to treatment groups. Rats were returned to home cages and monitored without treatment for 72 h. […] Animals were then evaluated for locomotor activity in an open field (60 cm square) using automated tracking software (MedAssociates).
Rats were exposed to a 15 min session of forced swimming in 25° C. water (20 cm diameter cylinder, 30 cm water depth). […] After 1 day, rats were tested for immobility time during 5-min FST sessions which were videotaped and scored by a trained observer blinded to treatment groups.

rats [2] = assay: Open field activity test; format: in vivo, rat; settings: 20-fold higher doses relative to the FST tests (0.5 and 2.0 mg/kg i.p.), relative to vehicle-treated controls
Procedure: Behavioral testing was applied to a cohort of 12 rats. Following 7 days of daily i.p. treatment with i) vehicle (10% DMSO, 10% Tween 80, 80% saline; 2 mL/kg); or solubilized ii) the compound of Example 2 (0.025 mg/kg) or iii) the compound of Example 2 (0.1 mg/kg), rats were exposed to the modified forced swim test (FST). Briefly, FST exposure (15 min exposure, 25° C. tap water, 30 cm water depth) was performed 18-24 h after the previous i.p. treatment, after which rats were returned to their home cages to dry for approximately 2-3 h, then given daily i.p. treatment as before. FST testing was performed one day later (5 min test, 25° C. tap water, 30 cm water depth) with behaviors digitally recorded for subsequent analysis of immobility by a trained reviewer, blinded to treatment groups. Rats were returned to home cages and monitored without treatment for 72 h. Rats were then treated for 7 additional days with i) vehicle, ii) the compound of Example 2 (0.5 mg/kg) or iii) the compound of Example 2 (2.0 mg/kg) via daily i.p. injection; treatment assignments for each rat remained the same with a 20× increase in dose of the compound of Example 2. Animals were then evaluated for locomotor activity in an open field (60 cm square) using automated tracking software (MedAssociates). […]

CN(Cc1ccc(/C=C/C(=O)Nc2ccccc2N)cc1)CC12CC3CC(CC(C3)C1)C2 [Example 2, (E)-3-(4-((((3r,5r,7r)-adamantan-1-ylmethyl)(methyl)amino)methyl)phenyl)-N-(2-aminophenyl)acrylamide]
decrease in FST immobility scores (rats [1]): 17% | effect in locomotor activity (open field) (rats [2]): no confounding effect in locomotor activity
